Reference: ChEMBL document CHEMBL1255488, “Semimechanistic pharmacokinetic-pharmacodynamic model with adaptation development for time-kill experiments of ciprofloxacin against Pseudomonas aeruginosa” (2010)

How the values were obtained:
Pseudomonas aeruginosa [1] = assay: microbe, parasite or virus in culture; settings: PAO1
Description: Antimicrobial activity against 0.25 ug/ml compound pre-treated Pseudomonas aeruginosa PAO1 by microdilution method

Pseudomonas aeruginosa [2] = assay: microbe, parasite or virus in culture; settings: PAO1; remark: listed apart in the source
Description: Antimicrobial activity against 0.12 ug/ml compound pre-treated Pseudomonas aeruginosa PAO1 in presence of 0.25 ug/ml of compound during plating experiment by microdilution method in presence of 40 ug/ml efflux-pump inhibitor PAbetaN

Pseudomonas aeruginosa [3] = assay: microbe, parasite or virus in culture; settings: PAO1; remark: listed apart in the source
Description: Antimicrobial activity against 0.25 ug/ml compound pre-treated Pseudomonas aeruginosa PAO1 in presence of 1 ug/ml of compound during plating experiment by microdilution method

Pseudomonas aeruginosa [4] = assay: microbe, parasite or virus in culture; settings: PAO1; remark: listed apart in the source
Description: Antimicrobial activity against 0.12 ug/ml compound pre-treated Pseudomonas aeruginosa PAO1 by microdilution method

Pseudomonas aeruginosa [5] = assay: Antimicrobial activity against Pseudomonas aeruginosa PAO7H by microdilution method in presence of 40 ug/ml efflux-pump inhibitor PAbetaN
Pseudomonas aeruginosa [6] = assay: microbe, parasite or virus in culture; settings: PAO1; remark: listed apart in the source
Description: Antimicrobial activity against 0.25 ug/ml compound pre-treated Pseudomonas aeruginosa PAO1 in presence of 1 ug/ml of compound during plating experiment by microdilution method in presence of 40 ug/ml efflux-pump inhibitor PAbetaN

Pseudomonas aeruginosa [7] = assay: microbe, parasite or virus in culture; settings: PAO1; remark: listed apart in the source
Description: Antimicrobial activity against 0.25 ug/ml compound pre-treated Pseudomonas aeruginosa PAO1 in presence of 0.5 ug/ml of compound during plating experiment by microdilution method

Pseudomonas aeruginosa [8] = assay: microbe, parasite or virus in culture; settings: PAO1; remark: listed apart in the source
Description: Antimicrobial activity against 0.12 ug/ml compound pre-treated Pseudomonas aeruginosa PAO1 in presence of 2 ug/ml of compound during plating experiment by microdilution method in presence of 40 ug/ml efflux-pump inhibitor PAbetaN

Pseudomonas aeruginosa [9] = assay: microbe, parasite or virus in culture; settings: PAO1; remark: listed apart in the source
Description: Antimicrobial activity against 0.25 ug/ml compound pre-treated Pseudomonas aeruginosa PAO1 in presence of 0.25 ug/ml of compound during plating experiment by microdilution method in presence of 40 ug/ml efflux-pump inhibitor PAbetaN

Pseudomonas aeruginosa [10] = assay: microbe, parasite or virus in culture; settings: PAO1; remark: listed apart in the source
Description: Antimicrobial activity against 0.12 ug/ml compound pre-treated Pseudomonas aeruginosa PAO1 by microdilution method in presence of 40 ug/ml efflux-pump inhibitor PAbetaN

Pseudomonas aeruginosa [11] = assay: microbe, parasite or virus in culture; settings: PAO1; remark: listed apart in the source
Description: Antimicrobial activity against 0.25 ug/ml compound pre-treated Pseudomonas aeruginosa PAO1 in presence of 0.5 ug/ml of compound during plating experiment by microdilution method in presence of 40 ug/ml efflux-pump inhibitor PAbetaN

Pseudomonas aeruginosa [12] = assay: microbe, parasite or virus in culture; settings: PAO1; remark: listed apart in the source
Description: Antimicrobial activity against 0.12 ug/ml compound pre-treated Pseudomonas aeruginosa PAO1 in presence of 0.25 ug/ml of compound during plating experiment by microdilution method

Pseudomonas aeruginosa [13] = assay: microbe, parasite or virus in culture; settings: PAO1; remark: listed apart in the source
Description: Antimicrobial activity against 0.25 ug/ml compound pre-treated Pseudomonas aeruginosa PAO1 in presence of 0.25 ug/ml of compound during plating experiment by microdilution method

Pseudomonas aeruginosa [14] = assay: microbe, parasite or virus in culture; settings: PAO1; remark: listed apart in the source
Description: Antimicrobial activity against 0.12 ug/ml compound pre-treated Pseudomonas aeruginosa PAO1 in presence of 0.5 ug/ml of compound during plating experiment by microdilution method in presence of 40 ug/ml efflux-pump inhibitor PAbetaN

Pseudomonas aeruginosa [15] = assay: microbe, parasite or virus in culture; settings: PAO1; remark: listed apart in the source
Pseudomonas aeruginosa [16] = assay: microbe, parasite or virus in culture; settings: PAO1; remark: listed apart in the source
Description: Antimicrobial activity against 0.12 ug/ml compound pre-treated Pseudomonas aeruginosa PAO1 in presence of 1 ug/ml of compound during plating experiment by microdilution method in presence of 40 ug/ml efflux-pump inhibitor PAbetaN

Pseudomonas aeruginosa [17] = assay: Antimicrobial activity against Pseudomonas aeruginosa PAO1 by microdilution method in presence of 40 ug/ml efflux-pump inhibitor PAbetaN
Pseudomonas aeruginosa [18] = assay: Antimicrobial activity against Pseudomonas aeruginosa PAO7H by microdilution method

Measured: MIC

O=C(O)c1cn(C2CC2)c2cc(N3CCNCC3)c(F)cc2c1=O [CIPROFLOXACIN]
0.12 µg/mL: Pseudomonas aeruginosa [2] | Pseudomonas aeruginosa [6] | Pseudomonas aeruginosa [8] | Pseudomonas aeruginosa [9] | Pseudomonas aeruginosa [11] | Pseudomonas aeruginosa [14] | Pseudomonas aeruginosa [16]
0.06 µg/mL: Pseudomonas aeruginosa [5] | Pseudomonas aeruginosa [10] | Pseudomonas aeruginosa [15] | Pseudomonas aeruginosa [17]
1 µg/mL: Pseudomonas aeruginosa [1] | Pseudomonas aeruginosa [3] | Pseudomonas aeruginosa [4] | Pseudomonas aeruginosa [7] | Pseudomonas aeruginosa [12] | Pseudomonas aeruginosa [13] | Pseudomonas aeruginosa [18]
